The source of these data is patent publication US20020077350A1 (Ashni Naturaceuticals, Inc., priority 2000, published 2002).

One series concerns COX-2. It counts as cell-based, human. The following applies: Jurkat cells, with and without arachidonic acid or arachidonic acid not specified.
The conditions of series [1]: gastrointestinal disturbance, nausea and vomiting, hypotension, edema; cited from earlier work.

Entries after “also recorded” stand apart in the source; their conditions may differ.

Protocol for COX-2: COX-2 is inducible in the Jurkat cell by PMA.
Cell plating: The Jurkat cells are propagated in suspension according to the instructions of the supplier. For experimentation, cells are seeded from a log-phase culture at a density of 1×10^5 cells per mL in 100 mm plates, 20 mL per plate, 3 plates per treatment. Serum concentration in the test medium is maintained at 0.5%.
Complete transfers are accomplished in 25-30 minutes at 500 mA. Membranes used for blotting are blocked by incubating in TBS (Tris buffered saline, 50 mM tris, 150 mM NaCl, pH 7.5) containing 5% nonfat dry milk for 30 minutes at room temperature. COX-2 protein is visualized by incubation of the blots with the anti-COX-2 antibody in TBST (0.5% Tween 20 in TBS) for two hours and then a second incubation at room temperature with alkaline phosphatase-conjugated secondary antibody diluted 1:1000 in TBST for two hours. The enzymatic reaction is developed for 15 minutes. The molecular weight of COX-2 is estimated by adding a molecular weight standard to reference lanes and staining the membrane filters with amido black 10B.
Blots are translated into TIFF-formatted files with a Microtech 600GS scanner and quantified using Scan Analysis (BIOSOFT, Cambridge UK). Summary scans are then printed and peak heights are measured directly from the figure. One density unit (Du) is defined as one mm of the resulting peak height.
Appropriate controls receive solvent only. […] Twenty-four hours after treatment, the cells are harvested, lysed and western blotting is done for the determination of COX-2 protein expression.

For the compound `C=C1CC[C@@H]2[C@](C)(CO)[C@H](O)CC[C@@]2(C)[C@@H]1C/C=C1/C(=O)OC[C@H]1O` [Andrographolide], in the series with COX-2, the “inhibition of COX-2 enzyme protein expression” value (from here on “inhibition”) is “does not inhibit; also recorded: little effect”.

Take `CC1(C)CC[C@]2(C(=O)O)CC[C@]3(C)C(=CC[C@@H]4[C@@]5(C)CC[C@H](O)C(C)(C)[C@@H]5CC[C@]43C)[C@@H]2C1` [Oleanolic acid]: the “inhibition” value in the series with COX-2 was “does not inhibit”.

Regarding `CC(C)[C@]12O[C@H]1[C@@H]1O[C@]13[C@]1(O[C@H]1C[C@H]1C4=C(CC[C@@]13C)C(=O)OC4)[C@@H]2O` [Triptolide], the “patients showing some type of side effects” value in series [1] was “Approximately 28%”.

In the case of `C[C@H]1[C@H](C)CC[C@]2(C(=O)O)CC[C@]3(C)C(=CC[C@@H]4[C@@]5(C)CC[C@H](O)C(C)(C)[C@@H]5CC[C@]43C)[C@H]12` [Ursolic acid], the “inhibition” value with COX-2 was “does not inhibit”.
